In the supplement of paper PMC10307832:

How the values were obtained:
Assay in all cases: relative viability (nuclei count vs DMSO), 5 days (fraction); higher = more cells survive
[1] = compound: C1CN(CCN1)C2=CC=C(C=C2)C3=CN4C(=C(C=N4)C5=CC=NC6=CC=CC=C56)N=C3 [DM3189] + Nc1ncn([C@H]2C[C@H](O)[C@@H](CO)O2)c(=O)n1 [Decitabine] (partner 2 µM)
In short: (§1)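 Lung cancer cell lines in 1536-well plates got either a single drug or a fixed anchor-drug dose together with five library-drug doses (not always all listed) in √10 steps, by pin tool, on the day after seeding. Nuclei were counted after 5 days, and relative viability is the treated-to-vehicle ratio of nuclei counts. Values are medians of duplicate plates.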

[2] = compound: C1CN(CCN1)C2=CC=C(C=C2)C3=CN4C(=C(C=N4)C5=CC=NC6=CC=CC=C56)N=C3 [DM3189] + Cc1cc(Nc2cc(N3CCN(C)CC3)nc(Sc3ccc(NC(=O)C4CC4)cc3)n2)n[nH]1 [Tozasertib] (partner 0.1 µM)
In short: as §1

[3] = compound: C1CN(CCN1)C2=CC=C(C=C2)C3=CN4C(=C(C=N4)C5=CC=NC6=CC=CC=C56)N=C3 [DM3189] + COc1cc2c(Oc3ccc(NC(=O)C4(C(=O)Nc5ccc(F)cc5)CC4)cc3F)ccnc2cc1OCCCN1CCOCC1 [Foretinib] (partner 0.25 µM)
In short: as §1

[4] = compound: C1CN(CCN1)C2=CC=C(C=C2)C3=CN4C(=C(C=N4)C5=CC=NC6=CC=CC=C56)N=C3 [DM3189] + CC1(C)CCC(c2ccc(Cl)cc2)=C(CN2CCN(c3ccc(C(=O)NS(=O)(=O)c4ccc(N[C@H](CCN5CCOCC5)CSc5ccccc5)c(S(=O)(=O)C(F)(F)F)c4)cc3)CC2)C1 [Navitoclax] (partner 0.5 µM)
In short: as §1

[5] = compound: C1CN(CCN1)C2=CC=C(C=C2)C3=CN4C(=C(C=N4)C5=CC=NC6=CC=CC=C56)N=C3 [DM3189] + Cc1nc(Nc2ncc(C(=O)Nc3c(C)cccc3Cl)s2)cc(N2CCN(CCO)CC2)n1 [Dasatinib] (partner 0.075 µM)
In short: as §1

Row | Cell Line | relative viability ([1]; first compound 0.08 µM) | relative viability ([1]; first compound 0.253 µM) | relative viability ([1]; first compound 0.8 µM) | relative viability ([1]; first compound 2.53 µM) | relative viability ([2]; first compound 0.08 µM) | relative viability ([2]; first compound 0.253 µM) | relative viability ([2]; first compound 2.53 µM) | relative viability ([3]; first compound 0.08 µM) | relative viability ([3]; first compound 0.253 µM) | relative viability ([3]; first compound 2.53 µM) | relative viability ([4]; first compound 0.08 µM) | relative viability ([4]; first compound 0.253 µM) | relative viability ([4]; first compound 0.8 µM) | relative viability ([4]; first compound 2.53 µM) | relative viability ([5]; first compound 0.08 µM) | relative viability ([5]; first compound 0.253 µM) | relative viability ([5]; first compound 2.53 µM) | relative viability ([2]; first compound 0.8 µM) | relative viability ([3]; first compound 0.8 µM) | relative viability ([5]; first compound 0.8 µM)
1 | HCC-366 | 0.396 | 0.293 | 0.269 | 0.341 | 0.133 | 0.0982 | 0.0984 | 0.939 | 0.975 | 0.936 | 0.955 | 1.06 | 0.842 | 1.04 | 0.943 | 0.759 | 0.846 | – | – | –
2 | HCC-827 | 0.34 | 0.311 | 0.324 | 0.296 | 0.376 | 0.36 | 0.377 | 1.1 | 0.945 | 0.935 | 0.958 | 0.942 | 0.887 | 1.02 | 0.378 | 0.276 | 0.378 | 0.354 | 0.953 | 0.317
3 | HOP-62 | 0.214 | 0.203 | 0.193 | 0.21 | 0.31 | 0.347 | 0.356 | 1.05 | 1.07 | 1.16 | 1.09 | 0.994 | 0.989 | 1.17 | 0.78 | 0.65 | 0.68 | 0.389 | 1.04 | 0.716
4 | IA-LM | – | – | – | – | – | – | – | 1.24 | 1.2 | 1.32 | 1.22 | 1.22 | 0.951 | 0.987 | – | – | – | – | 1.26 | –
5 | LC-2-ad | 0.851 | 0.77 | 0.826 | 0.916 | 0.461 | 0.396 | 0.482 | 1.08 | 0.926 | 0.992 | 0.59 | 0.532 | 0.435 | 0.358 | 0.636 | 0.487 | 0.572 | 0.474 | 0.931 | 0.458
6 | LCLC-97TM1 | 0.263 | 0.201 | 0.197 | 0.228 | 0.229 | 0.171 | 0.188 | 0.877 | 0.857 | 0.747 | 0.291 | 0.243 | 0.39 | 0.519 | 0.768 | 0.591 | 0.375 | 0.182 | 0.765 | 0.591
7 | LCLC-103H | 0.765 | 0.746 | 0.691 | 0.721 | 0.502 | 0.453 | 0.408 | 0.847 | 0.761 | 0.702 | – | – | – | – | 0.607 | 0.457 | 0.339 | 0.461 | 0.718 | 0.393
8 | LK-2 | 0.307 | 0.278 | 0.201 | 0.187 | 0.183 | 0.187 | 0.166 | 1.05 | 0.88 | 0.858 | 0.72 | 0.626 | 0.483 | 0.57 | 0.294 | 0.287 | 0.29 | 0.185 | 0.72 | 0.221
